Test results: patent publication US20160008493A1, “RADIOACTIVE SUBSTRATES FOR ALDEHYDE DEHYDROGENASE” (THE JOHNS HOPKINS UNIVERSITY, priority 2013, published 2016)

Legend:
ALDH [1] = assay: In vitro radio uptake assay for ALDH activity, K562 cells; type: cell-based, human; conditions: 1 μCi, 37° C., 30 mins, radioactivity (CPM) by gamma counter, FIG. 1
Source text: (§1) The K562 human chronic myelogenous leukemia cell line was purchased from American Type Culture Collection (CLL-243™) and maintained in suspension in IMDM media supplemented with 10% FBS. The murine leukemia cell line L1210 (ALDH^low) and L1210/cpa (ALDH^hi) were provided by Dr. Richard J. Jones (Johns Hopkins University) and maintained in suspension in RPMI 1640 supplemented with 10% FBS. Human glioma cell line, U87-tri was provided by Dr. John Laterra (Kennedy Krieger Institute) and maintained in DMEM media supplemented with 10% FBS. All cells were grown at 37° C. in a humidified incubator with 5% CO2.
(§2) ^125IBz-A-DA was dissolved in 100% DMSO at 10 mCi/50 μL concentration and stored at −20° C. as stock solutions. 25 μL of a stock was deprotected by mixing with the same volume of 2N HCl for 30 mins at room temperature and the resulting aldehyde (IBz-A) were neutralized by adding 350 μL of the assay buffer (PBS supplemented with 1% FBS and 50 μM Verapamil, Sigma V4629) and immediately used.
(§3) One million cells were resuspended in the assay buffer and 1 μCi of IBz-A (with or without 1000 fold cold competitor) was added to the cell. […] Cells were resuspended in the cold assay buffer ([…]) and stored in the ice until analyzed. Cells were washed twice with cold assay buffer and the radioactivity was measured by LKB Wallac gamma counter (1282 compugamma CS).

ALDH [2] = biological target: T1, ALDH (Mus musculus, UniProt P24549); assay: In vitro radio uptake assay for ALDH activity, L1210/cpa cells; type: cell-based, murine; conditions: L1210/cpa (ALDH^hi) cells; 1 μCi, 37° C., 30 mins; radioactivity (CPM) by gamma counter; FIG. 1
T1 construct: was tested for specific uptake by ALDH-expressing cell lines (K562 and L1210/cpa); endogenous in cells; host or cells: L1210/cpa
T1 sequence (P24549 1-501): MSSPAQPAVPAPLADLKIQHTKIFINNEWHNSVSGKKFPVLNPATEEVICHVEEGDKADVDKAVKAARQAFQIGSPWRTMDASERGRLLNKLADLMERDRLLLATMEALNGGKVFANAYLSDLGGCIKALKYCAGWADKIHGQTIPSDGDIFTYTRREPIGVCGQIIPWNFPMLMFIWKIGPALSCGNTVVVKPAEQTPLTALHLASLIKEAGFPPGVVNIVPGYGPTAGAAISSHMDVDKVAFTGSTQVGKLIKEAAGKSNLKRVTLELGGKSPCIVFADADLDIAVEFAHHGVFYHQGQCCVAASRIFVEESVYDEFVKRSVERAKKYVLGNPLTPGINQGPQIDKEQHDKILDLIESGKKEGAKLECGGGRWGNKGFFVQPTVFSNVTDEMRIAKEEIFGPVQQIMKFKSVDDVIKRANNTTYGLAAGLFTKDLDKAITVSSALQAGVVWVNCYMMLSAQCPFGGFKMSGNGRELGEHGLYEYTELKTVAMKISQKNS
Source text: as §1, §2, §3

For `O=CCNC(=O)c1ccc([125I])cc1` [^125IBz-A], the “increase of uptake compared with cells treated with DEAB (ALDH inhibitor)” value (ALDH [1]) was “more than 5 fold” and the “increase of uptake compared with cells treated with DEAB (ALDH inhibitor)” value (ALDH [2]) was “more than 5 fold”.
